From US20180201654A1, “PEPTIDE INHIBITORS OF HAUSP DEUBIQUITINASE” (priority 2012, published 2018) come the findings set out here.

Read-outs that look alike come from different tables or passages of the source.

Test [1] deals with PEL cells carrying p53 (wt). In words: Apoptosis assay (Annexin V/PI, flow cytometry) in PEL cells. Format: cell-based, human. The note with it: 10 μM. As for the experimental part: (§1) FIG. 3a-3g. […] Data are culled from 3 independent experiments.
The proportion of cells at the S phase was determined by measuring incorporation of BrdU and 7-amino-actionomycin D (ADD) into DNA. Cells were grown at a density of 5×10^6 cells/ml indicated periods with the treatment of either peptide or Nutlin-3a. The cells were pulse-labeled with 10 μM BrdU for 30 min. Cells were permeabilized, fixed and BrdU-, 7AAD-stained using the BrdU Flow Kit (BD Pharmingen) according to manufacturer's instructions. Stained cells were analyzed by flow cytometry to determine the cell-cycle distribution on a FACS Scan (BD FACSCanto™ II). Apoptosis was measured by dual-labeling with the Annexin V-FITC Apoptosis Detection kit I (BD biosciences-Pharmingen) according to the manufacturer's instruction and analyzed by Flow Jo software.
Shown is one representative experiment of three. It was shown that vif1/2 peptides cause cell death by apoptosis.
In this respect, BCBL-1 cells were treated with 100 μM of either vif1 or vif2 peptide for the indicated time periods and then subjected to Annexin V and PI staining, followed by FACS analysis. 10 μM Nutlin-3a was used as a positive control.
(In flow cytometry, cells or beads pass a laser one at a time.)

The subject of test [2] is primary TKI-resistant Ph^+ and normal ALL cells. In words: Long-term cell culture of TKI-resistant ALL cells. It is filed as cell-based, human. The note with it: single agent, FIG. 15. An excerpt: To test whether vif1 and vif2 peptides have killing effect on relapse leukemia, this example chose two different karyotype relapse ALL cells: Ph^+BCR-ABL^T3151 and normal. The T3151 mutation is one of the common mechanism of escape and resistance against all kinds of tyrosine kinase inhibitors (TKIs). After treatment of these peptides into several different relapse ALL cells, this example performed Trypan blue staining to select dead cells in time dependent manner. […] This example next validated the effect of nilotinib/TAT-vif1 (or TAT-vif2) combination on primary TKI-resistance in Ph^+ and normal ALL during long-term cell culture.

The target of another test is T1, USP8 (Homo sapiens, UniProt P40818).
T1 sequence (P40818 1-1118): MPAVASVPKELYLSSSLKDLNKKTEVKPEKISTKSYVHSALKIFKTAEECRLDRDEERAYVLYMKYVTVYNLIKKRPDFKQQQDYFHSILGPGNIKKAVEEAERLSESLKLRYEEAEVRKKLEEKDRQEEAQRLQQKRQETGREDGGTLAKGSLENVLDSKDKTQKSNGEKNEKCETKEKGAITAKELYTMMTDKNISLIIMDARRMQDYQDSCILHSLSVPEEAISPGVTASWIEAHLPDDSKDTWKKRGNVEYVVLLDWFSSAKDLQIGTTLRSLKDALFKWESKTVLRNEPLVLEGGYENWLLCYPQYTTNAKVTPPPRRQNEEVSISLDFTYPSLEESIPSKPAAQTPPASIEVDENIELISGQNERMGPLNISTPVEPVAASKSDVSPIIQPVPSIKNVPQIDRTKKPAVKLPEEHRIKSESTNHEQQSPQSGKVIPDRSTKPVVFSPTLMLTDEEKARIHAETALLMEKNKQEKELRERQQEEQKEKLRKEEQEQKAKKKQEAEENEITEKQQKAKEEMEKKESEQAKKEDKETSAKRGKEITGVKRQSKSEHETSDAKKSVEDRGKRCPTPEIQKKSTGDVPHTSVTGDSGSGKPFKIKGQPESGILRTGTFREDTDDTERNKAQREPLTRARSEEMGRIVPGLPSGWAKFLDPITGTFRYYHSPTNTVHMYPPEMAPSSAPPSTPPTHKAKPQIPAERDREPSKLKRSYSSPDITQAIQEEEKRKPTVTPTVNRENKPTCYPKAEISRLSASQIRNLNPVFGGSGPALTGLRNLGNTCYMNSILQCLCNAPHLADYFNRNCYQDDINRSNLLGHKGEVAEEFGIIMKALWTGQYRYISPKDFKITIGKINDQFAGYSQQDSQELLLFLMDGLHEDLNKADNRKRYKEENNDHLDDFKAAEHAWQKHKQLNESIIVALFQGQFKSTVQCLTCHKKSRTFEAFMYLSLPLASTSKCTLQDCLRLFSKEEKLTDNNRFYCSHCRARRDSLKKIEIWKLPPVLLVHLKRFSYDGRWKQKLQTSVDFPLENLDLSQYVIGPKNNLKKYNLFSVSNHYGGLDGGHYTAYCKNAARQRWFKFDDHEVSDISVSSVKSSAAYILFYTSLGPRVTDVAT
In words: In vitro deubiquitination assay with purified USP8. Particulars: 0.25 μM purified USP8 pre-mixed with peptide for 5 min; K48- or K63-linked chains. Format: biochemical.

The target of test [3] is T2, HAUSP TRAF domain HAUSP^62-205 (Homo sapiens, UniProt Q93009). It is filed as binding. Particulars: for n: ITC binding stoichiometry, 150 mM NaCl, 10 mM HEPES (pH 7.0). More on the design: All residues of HAUSP^62-205, with the exception of Asp^62, are included in the final model; hexahistidine tag (TEV-cleavable) (cleaved yes); made in house; host or cells: E. coli BL21 (DE3) RIPL. How it is done: FIG. 5. Typical isothermal titration calorimetric measurements of the interactions between the HAUSP TRAF domain and the vIRF4 protein derivatives or other peptides. Purified proteins and synthesized peptides were reconstituted in 150 mM NaCl and 10 mM HEPES (pH 7.0). The calorimetric assays were performed using a VPITC system. All experiments were carried out with a stirring speed of 300 rpm at 20° C., and the thermal power was recorded every 10 s. Data were analyzed using the ORIGIN software package (version 7.0). […] Each titration against the HAUSP TRAF domain is indicated in each panel.
(§2) Purified proteins and synthesized peptides (Peptron Inc., Deajeon, Korea) were reconstituted in 150 mM NaCl and 10 mM HEPES (pH 7.0). The calorimetric assays were performed using a VP-ITC system (MicroCal Inc., Northampton, Mass.). Samples were degassed by vacuum aspiration for 15 min prior to loading. All experiments were carried out with a stirring speed of 300 rpm at 20° C., and the thermal power was recorded every 10 s. Data were analyzed using the ORIGIN software package (version 7.0) supplied with the instrument. […] (SEQ ID NO: 6); EBNA1^435-449, […] (SEQ ID NO: 7); MDM2^137-152, […] […] (SEQ ID NO: 10). Each set of ITC experiments was repeated two or three times.

In test [4] the target is T2, HAUSP TRAF domain HAUSP^62-205. In words: Size exclusion chromatography of complex formation in excess MDM2^137-152. Particulars: in the presence of a 5-fold molar excess of MDM2^137-152. It is filed as binding. Details: hexahistidine tag (TEV-cleavable) (cleaved yes); made in house; host or cells: E. coli BL21 (DE3) RIPL. In general terms: In gel filtration, larger molecules generally elute earlier.

Test [5] deals with p53, p21, MDM2 and HAUSP levels in PEL cells. In words: Western blot of p53 and its transcriptional targets in PEL cells. The note with it: peptide treatment. It is filed as cell-based, human.
Description: as §1

The target of the next test is T3, HAUSP TRAF domain (Homo sapiens, UniProt Q93009).
T3 construct: All residues of HAUSP^62-205, with the exception of Asp^62, are included in the final model; hexahistidine tag (TEV-cleavable) (cleaved yes); made in house; host or cells: E. coli BL21 (DE3) RIPL
It is filed as binding. How it is done: FIG. 9. Typical isothermal titration calorimetric measurements of the competitive binding of vIRF4 with TRAF domain against cellular substrates. […] Each competitive titration is indicated in the panel.
as §2
To further gauge the competitive nature of vIRF4 binding, the TRAF domain was incubated with an equal molar amount of vIRF4^153-216 in the presence of a 5-fold molar excess of MDM2^137-152, and the mixture was then analyzed by size exclusion chromatography.

Test [6] has as its target T4, HAUSP (USP7) (Homo sapiens, UniProt Q93009). The test is described as follows: In vitro DUB assay with ubiquitinated MDM2 as substrate. The note with it: HAUSP preincubated with increasing amounts of peptide; 1 h at 37° C.
The target in test [7] is T4, HAUSP (USP7). Particulars: time-course, K48-Ub3-7 chains, 37° C.

T4 sequence (Q93009 whole entry): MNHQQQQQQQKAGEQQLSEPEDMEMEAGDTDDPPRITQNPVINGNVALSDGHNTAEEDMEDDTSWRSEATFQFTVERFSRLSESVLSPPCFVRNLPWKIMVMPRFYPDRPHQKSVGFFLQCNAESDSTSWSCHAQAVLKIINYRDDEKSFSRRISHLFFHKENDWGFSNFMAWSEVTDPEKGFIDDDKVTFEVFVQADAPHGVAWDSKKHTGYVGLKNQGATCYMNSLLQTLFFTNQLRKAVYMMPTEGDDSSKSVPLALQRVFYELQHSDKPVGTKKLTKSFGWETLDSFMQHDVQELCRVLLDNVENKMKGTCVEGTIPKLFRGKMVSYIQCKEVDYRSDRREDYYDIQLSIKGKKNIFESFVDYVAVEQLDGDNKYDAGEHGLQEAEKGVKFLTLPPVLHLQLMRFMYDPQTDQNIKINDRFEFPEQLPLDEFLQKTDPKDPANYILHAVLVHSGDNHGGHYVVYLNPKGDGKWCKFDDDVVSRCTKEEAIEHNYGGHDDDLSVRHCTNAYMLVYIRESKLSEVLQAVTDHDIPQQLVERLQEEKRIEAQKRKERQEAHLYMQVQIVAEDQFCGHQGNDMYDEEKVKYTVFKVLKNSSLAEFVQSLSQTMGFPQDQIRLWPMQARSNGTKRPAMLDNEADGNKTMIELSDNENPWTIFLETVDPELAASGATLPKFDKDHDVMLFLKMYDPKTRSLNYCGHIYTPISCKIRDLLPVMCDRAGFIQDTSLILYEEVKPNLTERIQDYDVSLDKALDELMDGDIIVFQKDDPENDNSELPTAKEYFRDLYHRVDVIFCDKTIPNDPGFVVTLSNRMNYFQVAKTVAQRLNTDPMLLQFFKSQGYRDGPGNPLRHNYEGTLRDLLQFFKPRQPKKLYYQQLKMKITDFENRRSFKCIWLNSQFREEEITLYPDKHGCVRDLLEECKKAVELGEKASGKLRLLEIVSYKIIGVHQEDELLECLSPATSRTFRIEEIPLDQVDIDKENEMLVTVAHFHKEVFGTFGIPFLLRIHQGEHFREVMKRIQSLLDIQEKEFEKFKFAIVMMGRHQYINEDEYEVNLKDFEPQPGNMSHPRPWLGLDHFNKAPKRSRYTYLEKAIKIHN
T3 sequence (Q93009 62-205): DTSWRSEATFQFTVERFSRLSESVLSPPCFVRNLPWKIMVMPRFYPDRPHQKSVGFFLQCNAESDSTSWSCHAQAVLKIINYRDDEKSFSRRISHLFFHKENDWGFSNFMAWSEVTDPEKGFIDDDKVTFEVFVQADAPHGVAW
T2 sequence (Q93009 62-205): as above

As for `COc1ccc(C2=N[C@@H](c3ccc(Cl)cc3)[C@@H](c3ccc(Cl)cc3)N2C(=O)N2CCNC(=O)C2)c(OC(C)C)c1` [Nutlin-3a], in test [1], the cell death result is “considerable cell death”.
Consider `Cc1cn(-c2cc(NC(=O)c3ccc(C)c(Nc4nccc(-c5cccnc5)n4)c3)cc(C(F)(F)F)c2)cn1` [nilotinib], for which the “response of refractory ALL cells in long-term culture” value in test [2] was “did not achieve a therapeutic response”.
In the case of `CC[C@H](C)[C@H](NC(=O)[C@H](Cc1c[nH]c2ccccc12)NC(=O)[C@@H](NC(=O)[C@@H](N)CO)C(C)C)C(=O)N1CCC[C@H]1C(=O)N[C@H](C(=O)N[C@@H](CC(N)=O)C(=O)N[C@@H](CCC(=O)O)C(=O)NCC(=O)N[C@@H](C)C(=O)N[C@@H](CO)C(=O)N[C@H](C(=O)N[C@@H](CO)C(=O)NCC(=O)N[C@@H](CCSC)C(=O)O)[C@@H](C)O)C(C)C` [vIRF4^202-216], the “USP8 DUB activity” value at USP8 is on record as “can not inhibit”. The “tighter binding to the TRAF domain compared to the peptides derived from MDM2 and p53” value in test [3] (ITC) was 28-40 fold. In [3] (20° C.), this compound came in with a n of 0.84 ± 0.01. In addition, the TΔS in test [3] (ITC, 20° C., pH 7.0) is -10.63 kcal/mol. This compound also had a ΔG in test [3] (ITC, 20° C., pH 7.0) of -8.60 kcal/mol. The compound also had a ΔH in [3] (ITC, 20° C., pH 7.0) of -19.22 ± 0.05 kcal/mol. Moreover, the “complex formation with the TRAF domain” value in test [4] is on record as “formed a stable complex”. The HAUSP levels entry in [5] is reported as “Neither vif1 nor vif2 peptide treatment altered”. Besides, the “association constant (Kobs)” value was 1.09e+07 M⁻¹ at HAUSP TRAF domain (competitor titrated against MDM2^137-152-bound TRAF), 4.42e+07 M⁻¹ at HAUSP TRAF domain (competitor titrated against p53^350-364-bound TRAF) and 3.58e+07 M⁻¹ at HAUSP TRAF domain (competitor titrated against p53^355-369-bound TRAF). For the same compound, the Kobs at HAUSP TRAF domain (titrated to MDM2^137-152-TRAF) is 10.875 ± 1.308 10^6 M^−1; at HAUSP TRAF domain (titrated to p53^350-364-TRAF), 44.200 ± 4.200 10^6 M^−1; on HAUSP TRAF domain (titrated to p53^355-369-TRAF), 35.800 ± 3.400 10^6 M^−1. In addition, the results for the ΔHobs at HAUSP TRAF domain (titrated to MDM2^137-152-TRAF), on HAUSP TRAF domain (titrated to p53^350-364-TRAF) and on HAUSP TRAF domain (titrated to p53^355-369-TRAF) were -25.870 ± 0.240 kcal/mol, -19.070 ± 0.194 kcal/mol and -19.150 ± 0.203 kcal/mol, respectively. The “HAUSP DUB activity against ubiquitinated MDM2” value at HAUSP (USP7) [6] is “efficiently blocked”. Besides, on HAUSP (USP7) [7], the “HAUSP DUB activity, comparative kinetic analysis” value is given as “weakly attenuated”.
For `C[C@H](NC(=O)[C@@H]1CCCN1C(=O)CNC(=O)[C@H](CCC(N)=O)NC(=O)[C@@H](N)CCC(=O)O)C(=O)N[C@@H](CC(=O)O)C(=O)N[C@@H](CC(=O)O)C(=O)N1CCC[C@H]1C(=O)NCC(=O)N[C@@H](CCC(=O)O)C(=O)NCC(=O)N1CCC[C@H]1C(=O)N[C@@H](CO)C(=O)N[C@H](C(=O)NCC(=O)O)[C@@H](C)O` [EBNA1^435-449, reference compound], the n in test [3] (20° C.) is recorded as 0.81 ± 0.01. Moreover, in test [3] (ITC, 20° C., pH 7.0), the Ka is reported as 2.10 ± 0.15 10^6 M^−1, the TΔS was -8.69 kcal/mol, the ΔG was -8.48 kcal/mol and the ΔH is -17.17 ± 0.13 kcal/mol.
For the compound “TRQVTQASSFTWRVPG (GTRQVTQASSFTWRVPG; Human herpesvirus 8) [vif2]”, the “USP8 DUB activity” value with USP8 is recorded as “can not inhibit”. Moreover, in test [5], the HAUSP levels result was “Neither vif1 nor vif2 peptide treatment altered”. Also, the “HAUSP DUB activity against ubiquitinated MDM2” value with HAUSP (USP7) [6] is recorded as “efficiently blocked”. Besides, the “HAUSP DUB activity, comparative kinetic analysis” value in the test with HAUSP (USP7) [7] is “completely suppressed”.
